Legend:
[1] = target: BRD4 (His-Brd4(44-477)) (Homo sapiens (Human), UniProt O60885); assay: TR-FRET in-vitro binding assay for BRD4; settings: single determination or n ≧ 2 independent determinations, read-out: Biochemical IC50 BRD4
Procedure, shortened: (§1)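 Compounds were serially diluted over eight concentrations and added to wells. TR-FRET signal was then measured.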

[2] = target: BRD3 (His-Brd3(20-477)) (Homo sapiens (Human), UniProt Q15059); assay: TR-FRET in-vitro binding assay for BRD3; settings: single determination or n ≧ 2 independent determinations, read-out: Biochemical IC50 BRD3
BRD3 (His-Brd3(20-477)), sequence (Q15059 20-477): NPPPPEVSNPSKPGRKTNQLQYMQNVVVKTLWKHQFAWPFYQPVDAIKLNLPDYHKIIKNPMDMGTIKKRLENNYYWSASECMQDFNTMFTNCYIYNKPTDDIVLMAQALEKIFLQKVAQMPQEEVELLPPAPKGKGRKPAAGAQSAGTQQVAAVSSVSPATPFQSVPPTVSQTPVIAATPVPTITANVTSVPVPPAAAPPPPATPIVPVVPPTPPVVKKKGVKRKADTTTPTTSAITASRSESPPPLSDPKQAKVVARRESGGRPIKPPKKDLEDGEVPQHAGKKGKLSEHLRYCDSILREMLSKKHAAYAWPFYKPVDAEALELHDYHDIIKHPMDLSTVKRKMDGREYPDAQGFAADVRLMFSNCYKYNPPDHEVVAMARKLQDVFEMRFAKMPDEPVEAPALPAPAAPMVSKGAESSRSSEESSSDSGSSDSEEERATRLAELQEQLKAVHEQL
Procedure, shortened: as §1

[3] = test system: MV-4-11 cells; assay: Cell growth inhibition assay (CellTiter-Glo), MV-4-11; settings: for GI50: Homo sapiens, MV4-11, read-out: MV-4-11 GI50; for MV-4-11 TGI: MV-4-11 cells, total growth inhibition, CellTiter-Glo;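 for all read-outs here: cellular ATP luminescence after 4 days, 3-fold dilution series from 10 µM top dose, vehicle (0.1% DMSO) set to 100%, cell-free medium set to −100%, day 0 corrected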
[4] = target: CREBBP bromodomain (His-CREBBP(1081-1197)) (Homo sapiens (Human), UniProt Q92793); assay: AlphaScreen in-vitro binding assay for CREBBP; settings: single determination or n ≧ 2 independent determinations, read-out: Biochemical IC50 CREBBP
CREBBP bromodomain (His-CREBBP(1081-1197)), sequence (Q92793 1081-1197): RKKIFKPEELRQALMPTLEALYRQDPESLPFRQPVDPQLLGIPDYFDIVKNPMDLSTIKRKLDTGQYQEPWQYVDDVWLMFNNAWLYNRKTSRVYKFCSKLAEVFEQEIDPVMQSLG
Procedure, shortened: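 Reactions at 30 °C for 35 min, then Ni-chelate acceptor and streptavidin donor beads in HEPES pH 7.5, NaCl, Tween20, BSA, 60 min at room temperature. Eight-point compound series; IC50 by non-linear regression of percent inhibition.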

[5] = test system: THP-1 cells; assay: Cell growth inhibition assay (CellTiter-Glo), THP-1; settings: for GI50: Homo sapiens, THP-1, read-out: THP-1 GI50; for THP-1 TGI: THP-1 cells, total growth inhibition, CellTiter-Glo;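 for all read-outs here: viability read as cellular ATP luminescence after 4 days, 3-fold dilution series from 10 µM, DMSO vehicle-treated cells taken as 100%, cell-free medium wells as −100%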
[6] = target: BRD2 (His-Brd2(60-472)) (Homo sapiens (Human), UniProt P25440); assay: TR-FRET in-vitro binding assay for BRD2; settings: single determination or n ≧ 2 independent determinations, read-out: Biochemical IC50 BRD2
BRD2 (His-Brd2(60-472)), sequence (P25440 60-472): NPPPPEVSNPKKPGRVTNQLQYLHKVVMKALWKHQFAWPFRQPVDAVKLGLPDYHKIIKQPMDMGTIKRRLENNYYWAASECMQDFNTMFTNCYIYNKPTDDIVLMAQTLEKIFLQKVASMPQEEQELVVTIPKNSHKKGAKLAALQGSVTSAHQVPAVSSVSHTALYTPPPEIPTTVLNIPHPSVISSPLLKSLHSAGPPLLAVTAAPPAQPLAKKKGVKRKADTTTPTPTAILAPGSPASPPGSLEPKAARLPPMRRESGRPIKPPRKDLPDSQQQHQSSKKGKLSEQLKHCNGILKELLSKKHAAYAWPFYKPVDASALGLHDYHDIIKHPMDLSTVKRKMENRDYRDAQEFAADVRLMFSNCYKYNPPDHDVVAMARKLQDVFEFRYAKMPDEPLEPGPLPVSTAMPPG
Procedure, shortened: as §1

[7] = test system: K-562 cells; assay: Cell growth inhibition assay (CellTiter-Glo), K-562; settings: for GI50: Homo sapiens, K562, read-out: K-562 GI50; for K-562 TGI: K-562 cells, total growth inhibition, CellTiter-Glo;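 for all read-outs here: cellular ATP measured by luminescence after 4 days of exposure, 3-fold dilution series from 10 µM, DMSO vehicle-treated cells define 100%, cell-free medium wells −100%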
[8] = target: nuclear BRD4-NUT foci in HCC2494 NUT midline carcinoma cells (Homo sapiens, UniProt O60885); assay: cell-based

Row | SMILES | IC50 [1] [nM] | IC50 [2] [nM] | GI50 [3] [nM] | IC50 [4] [nM] | GI50 [5] [nM] | IC50 [6] [nM] | GI50 [7] [nM] | IC50 [8] [nM] | MV-4-11 TGI [3] [nM] | THP-1 TGI [5] [nM] | K-562 TGI [7] [nM]
1 | COc1ccc(-c2nc3c([nH]2)C(c2ccc(Cl)cc2)N(c2cc(C)c(=O)n(C)c2)C3=O)cn1 (stereo not drawn) [Example 4, 6-(4-chlorophenyl)-5-(1,5-dimethyl-6-oxo-1,6-dihydropyridin-3-yl)-2-(6-methoxypyridin-3-yl)-5,6-dihydropyrrolo[3,4-d]imidazol-4(1H)-one] | 64 | 68 | 69.5 | 1400 | 110 | 68 | 254 | 74.7 | 116 | 207 | >10000
2 | Cc1cc(N2C(=O)c3nc(-c4nccs4)n(C4CC4)c3C2c2ccc(Cl)cc2)cn(C)c1=O (stereo not drawn) [Example 43, 6-(4-chlorophenyl)-1-cyclopropyl-5-(1,5-dimethyl-6-oxo-1,6-dihydropyridin-3-yl)-2-(thiazol-2-yl)-5,6-dihydropyrrolo[3,4-d]imidazol-4(1H)-one] | 64 | 55 | 66.2 | 32300 | 90.5 | 59.5 | 356 | 52.9 | 99.55 | 162.5 | >10000
3 | COc1ncccc1-c1nc2c(n1C(C)C)C(=O)N(c1cc(C)c(=O)n(C)c1)[C@@H]2c1ccc(Cl)cc1 [Example 45, (R)-6-(4-chlorophenyl)-5-(1,5-dimethyl-6-oxo-1,6-dihydropyridin-3-yl)-3-isopropyl-2-(2-methoxypyridin-3-yl)-5,6-dihydropyrrolo[3,4-d]imidazol-4(3H)-one] | 16 | 17 | 22.5 | 1000 | 32.8 | 17 | 126 | 49.7 | 43.9 | 60.5 | >10000
4 | Cc1cc(N2C(=O)c3c(nc(C)n3C(C)C)C2c2ccc(Cl)cc2)cc2c1nnn2C (racemic) [Example 3, 6-(4-chlorophenyl)-5-(3,7-dimethyl-3H-benzo[d][1,2,3]triazol-5-yl)-3-isopropyl-2-methyl-5,6-dihydropyrrolo[3,4-d]imidazol-4(3H)-one] | 15 | 12 | 8.19 | 2600 | 13.7 | 27 | 55.1 | 12.3 | 14.45 | 27.55 | >10000
5 | COc1ccc(-c2nc3c(n2C(C)C)C(c2ccc(Cl)cc2)N(c2cc(C)c4nnc(C)n4c2)C3=O)cn1 (stereo not drawn) [Example 9, 6-(4-chlorophenyl)-5-(3,8-dimethyl-[1,2,4]triazolo[4,3-a]pyridin-6-yl)-1-isopropyl-2-(6-methoxypyridin-3-yl)-5,6-dihydropyrrolo[3,4-d]imidazol-4(1H)-one] | 34 | 34 | 48.4 | > 37000 | 98.7 | 43 | 258 | 2090 | 94.2 | 175 | >10000
6 | Cc1cc(N2C(=O)c3nc(C4CC4)n(C(C)C)c3C2c2ccc(Cl)cc2)cn2c(C)nnc12 (racemic) [Example 13, 6-(4-chlorophenyl)-2-cyclopropyl-5-(3,8-dimethyl-[1,2,4]triazolo[4,3-a]pyridin-6-yl)-1-isopropyl-5,6-dihydropyrrolo[3,4-d]imidazol-4(1H)-one] | 37 | 39 | 11.3 | 4500 | 26.1 | 41 | 114 | 16.1 | 27.15 | 59.45 | >10000
7 | CCn1c(-c2cccnc2OC)nc2c1C(=O)N(c1cc(C)c(=O)n(C)c1)[C@@H]2c1ccc(Cl)cc1 [Example 41, (R)-6-(4-chlorophenyl)-5-(1,5-dimethyl-6-oxo-1,6-dihydropyridin-3-yl)-3-ethyl-2-(2-methoxypyridin-3-yl)-5,6-dihydropyrrolo[3,4-d]imidazol-4(3H)-one] | 16 | 17 | 6.72 | 430 | 13.8 | 15.5 | 45.2 | 7 | 11 | 30.6 | >10000

The next lines start with results.

Row | IC50 [1] [nM] | IC50 [2] [nM] | GI50 [3] [nM] | IC50 [4] [nM] | GI50 [5] [nM] | IC50 [6] [nM] | GI50 [7] [nM] | IC50 [8] [nM] | SMILES | MV-4-11 TGI [3] [nM] | THP-1 TGI [5] [nM] | K-562 TGI [7] [nM]
8 | 40 | 38 | 42.5 | 1100 | 74.3 | 39 | 305 | 81.3 | Cc1cc(N2C(=O)c3[nH]c(C4CC4)nc3[C@H]2c2ccc(Cl)cc2)cn(C)c1=O [Example 47, R-6-(4-chlorophenyl)-2-cyclopropyl-5-(1,5-dimethyl-6-oxo-1,6-dihydropyridin-3-yl)-5,6-dihydropyrrolo[3,4-d]imidazol-4(3H)-one] | 102.8 | 141 | >10000
9 | < 11 | < 11 | 40.5 | 5100 | 83.6 | < 11 | 572 | 91.2 | Cc1cc(N2C(=O)c3nc(C4CC4)n(C)c3C2c2ccc(Cl)cc2)cn2c(C)nnc12 (stereo not drawn) [Example 57, 6-(4-chlorophenyl)-2-cyclopropyl-5-(3,8-dimethyl-[1,2,4]triazolo[4,3-a]pyridin-6-yl)-1-methyl-5,6-dihydropyrrolo[3,4-d]imidazol-4(1H)-one] | 68.8 | 193 | >10000
10 | 29 | 27 | 10.8 | 4400 | 9 | 29 | 48.1 | 3.07 | CCn1c(C)nc2c1C(=O)N(c1cc(C)c3nnn(C)c3c1)C2c1ccc(Cl)cc1 (stereo not drawn) [Example 121, 6-(4-chlorophenyl)-5-(3,7-dimethyl-3H-benzo[d][1,2,3]triazol-5-yl)-3-ethyl-2-methyl-5,6-dihydropyrrolo[3,4-d]imidazol-4(3H)-one] | 20.9 | 20.1 | >10000
11 | 78 | 77 | 65.3 | 2000 | 145 | 84 | 499 | 226 | Cc1cc(N2C(=O)c3[nH]c(C4CC4)nc3C2c2ccc(Cl)cc2)cn(C)c1=O (stereo not drawn) [Example 46, 6-(4-chlorophenyl)-2-cyclopropyl-5-(1,5-dimethyl-6-oxo-1,6-dihydropyridin-3-yl)-5,6-dihydropyrrolo[3,4-d]imidazol-4(3H)-one] | 108 | 305 | >10000
12 | 59 | 98 | 2100 | > 37000 | 3710 | 120 | > 10000 | 3390 | COc1ncc(-c2nc3c(n2C)C(c2ccc(Cl)cc2)N(c2cc(OC)c4nnc(C)n4c2)C3=O)c(OC)n1 (stereo not drawn) [Example 54, 6-(4-chlorophenyl)-2-(2,4-dimethoxypyrimidin-5-yl)-5-(8-methoxy-3-methyl-[1,2,4]triazolo[4,3-a]pyridin-6-yl)-1-methyl-5,6-dihydropyrrolo[3,4-d]imidazol-4(1H)-one] | 3600 | >10000 | >10000

Source: US9890166B2, “Imidazopyrrolidine derivatives and their use in the treatment of disease” (NOVARTIS AG, priority 2013, dated 2018)
